Data reported in US12029738B2, “Antiproliferative compounds and methods of use thereof” (Celgene Corporation, priority 2017, dated 2024).
Entries after “also recorded” stand apart in the source; their conditions may differ.

How the values were obtained:
[1] = system: H929-1051 cells; test: Cell apoptosis assay (Caspase-3 live cell imaging); format: cell-based, human
Text: FIG. 1A and FIG. 1B. (FIG. 1A) Change in apoptosis induction, as measured by area under the curve of Caspase 3 fold induction (aka apoptosis index) over time in lenalidomide resistant H929-1051 cells. Abscissa: log nM (compound), ordinate: apoptosis index. The lines of best fit are a 3-parameter logistic equation calculated in GraphPad Prism. (FIG. 1B) The area under the curve of the concentration-response curves for Compound 1 and Compound A in H929-1051 cells were used to compare the compounds' ability to induce apoptosis after a 6 h exposure and then dilution resulting in about a 20-fold reduction of compound concentration.
Cell Apoptosis Assays: The ability of the compounds to induce apoptosis was assessed in selected MM cell lines at the time points and compound concentrations indicated. As a marker of apoptosis, the level of Caspase-3 activity was measured in MM cells using live cell imaging. To image suspension cells, 96-well plates were coated with fibronectin so cells would adhere and lie flat on the bottom of the plate. Cells were added to 96-well plates using a Multidrop Combi Reagent Dispenser (Thermo Scientific, Waltham, MA) the night before compound addition. […] Cleavage of the Caspase-3 enzyme substrate and cellular confluence in each well was detected via imaging at 10× on the IncuCyte ZOOM System every 4-6 h for 5 days. […]
Compound 1 Induced Apoptosis in Multiple Myeloma Cell Lines. […] To determine the ability of compounds to induce apoptosis and to characterize kinetically the onset of this process, Caspase-3 induction was measured over time in lenalidomide-resistant, H929-1051 cells (FIG. 1A and FIG. 1B). H929-1051 cells were incubated with the compounds at concentrations of 1 nM, 10 nM, 100 nM and 1000 nM and apoptosis was assessed over time. […] Next, the area under the curve (AUC) was calculated for each concentration and used to generate the concentration-response curves for each compound. This provided quantitative evidence of the ability of Compound 1 to induce apoptosis in H929-1051.

[2] = system: NCI-H929; test: Coculture of compound-treated anti-CD3-activated PBMCs with untreated myeloma cells; format: cell-based; conditions: Homo sapiens, T:E 1:5, 24 h, read-out: IC50 tumor cell lysis by compound-treated PBMCs
Experimental: Coculture Assays with Compound-treated Human Peripheral Blood Mononuclear Cells and Untreated Myeloma Cell Lines. Methods: Cell Culture. All myeloma cell lines were kept in log phase, and cell density and viability were monitored by trypan blue exclusion using the Vi-CELL XR cell viability analyzer.
PBMC Treatment Assay Procedure. Ninety-six-well dishes were pre-coated with anti-CD3 antibody (OKT3, 3 μg/mL) and incubated at 4° C. overnight before the start of the experiment. Frozen PBMC donors, were thawed at 37° C. for 2 minutes in RPMI medium with 10% FBS and cell counts and viability were measured on the Vi-CELL® (Beckman Coulter). Peripheral blood mononuclear cells were washed and diluted to 1×10^6 cells/mL and dispensed to the compound-treated plates in a total volume of 200 μL. Cells were incubated with compounds for 2 h before being transferred onto anti-CD3-coated plates and incubated for an additional 72 h at 37° C. After 72 h, the PBMCs were centrifuged, and cells were washed twice in RPMI medium+10% FBS. […] Peripheral blood mononuclear cells were counted and added to the MM cells at a target:effector (T:E) ratio of 1:5. After 24 h co-culture, specific target cell lysis by PBMCs was measured using Annexin V-AF647 and 7-AAD according to manufacturer's instructions and samples were run on the Attune NxT Cytometer (Thermo Fisher).

[3] = system: neutrophil progenitors (bone marrow CD34+ cells from healthy donors); test: Ex vivo maturation of myeloid progenitors to adult neutrophils
Experimental: Methods: Ex vivo cultures of bone marrow (BM) CD34^+ cells from healthy donors (HD) were used to investigate neutrophil-specific ex vivo maturation. In vitro differentiation of neutrophil progenitors was induced by adding stem cell factor (SCF), fins-related tyrosine kinase 3 ligand (Flt3-L), and granulocyte colony stimulating factor (G-CSF) to culture media. Cell differentiation was evaluated by flow cytometry as the percentage of cells in 5 subpopulations: hematopoietic stem cells (HSC, CD34^+/CD33^−/CD11b^−) and Stage I (CD34^+/CD33^+/CD11b^−), Stage II (CD34^−/CD33^+/CD11b^−), Stage III (CD34^−/CD33^+/CD11b^+), and Stage IV (CD34^−/CD33^−/CD11b^+) (from immature to mature), as shown in FIG. 7. The effects of Compound 2 on maturation of neutrophil progenitors were assessed and different dosing schedules were evaluated to gain insight into the schedule dependence of these events.
Longer Daily Compound 2 Exposures. To further characterize the potential impacts of different schedules on arrest of neutrophil progenitor maturation and subsequent recovery, changes in the relative proportions of each of the aforementioned stages of myeloid progenitor […] CD34^+ BM cells derived from healthy donors were exposed to Compound 2 on 3 or 5 consecutive days starting on Day 10 for 6 h (Donors No. 1 and 2) or for 24 h (Donors No. 3 and 4) each day. […]

[4] = system: lenalidomide-resistant NCI-H929 (H929-1051) multiple myeloma/plasmacytoma tumors; test: H929-1051 xenograft, Compound 2 alone and with bortezomib; format: in vivo, mouse
[5] = biological target: T1, CYP2A6 (Homo sapiens, UniProt P11509); test: CYP inhibition in pooled human liver microsomes; format: in vitro ADME; conditions: up to 30 μM
T1 construct: from tissue; host or cells: pooled human liver microsomes
T1 sequence (P11509 whole entry): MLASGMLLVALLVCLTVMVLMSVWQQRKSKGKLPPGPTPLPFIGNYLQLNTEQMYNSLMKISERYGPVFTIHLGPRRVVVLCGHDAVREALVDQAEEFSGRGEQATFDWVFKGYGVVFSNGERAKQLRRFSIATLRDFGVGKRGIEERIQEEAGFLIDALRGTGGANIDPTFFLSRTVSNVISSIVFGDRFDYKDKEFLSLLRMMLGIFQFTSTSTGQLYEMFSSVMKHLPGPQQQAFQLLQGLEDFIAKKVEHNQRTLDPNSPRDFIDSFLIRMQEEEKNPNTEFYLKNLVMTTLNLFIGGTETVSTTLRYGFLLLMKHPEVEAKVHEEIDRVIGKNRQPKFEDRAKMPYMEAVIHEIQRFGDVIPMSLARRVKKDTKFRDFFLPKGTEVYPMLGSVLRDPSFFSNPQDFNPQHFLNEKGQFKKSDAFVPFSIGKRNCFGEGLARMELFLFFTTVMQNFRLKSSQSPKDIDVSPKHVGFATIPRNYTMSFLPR

## N#Cc1ccc(N2CCN(Cc3ccc(COc4cccc5c4CN(C4CCC(=O)NC4=O)C5=O)cc3)CC2)c(F)c1 (racemic) [Compound 1, 4-(4-(4-(((2-(2,6-dioxopiperidin-3-yl)-1-oxoisoindolin-4-yl)oxy)methyl)benzyl)piperazin-1-yl)-3-fluorobenzonitrile]
[1]; 1-1000 nM
  time of near maximal apoptosis induction: ~72 h
[1]; 1-1000 nM, all concentrations
  time at which apoptosis induction begins: around 48 h
[1]; 6 h exposure then about 20-fold dilution, relative to Compound A
  apoptotic induction (total AUC) compared to Compound A: 126%

## N#Cc1ccc(N2CCN(Cc3ccc(COc4cccc5c4CN([C@H]4CCC(=O)NC4=O)C5=O)cc3)CC2)c(F)c1 [Compound 2, (S)-4-(4-(4-(((2-(2,6-dioxopiperidin-3-yl)-1-oxoisoindolin-4-yl)oxy)methyl)benzyl)piperazin-1-yl)-3-fluorobenzonitrile]
[2]
  IC50: 5 nM
[3]
  loss of viability: no loss of viability was observed
[3]; 1, 10, 100 nM, 2, 4, 6 h exposures for up to 3 consecutive days
  late-stage maturation of neutrophil progenitors: blocked
[4]; Compound 2 1 mg/kg qd×3 in combination with bortezomib 1 mg/kg single dose, day 50
  tumor volume reduction (TVR): 98%
[4]; Compound 2 1 mg/kg with second agent 1 mg/kg
  combination antitumor activity (fractional product method): synergistic
[4]; combination of Compound 2 and bortezomib, by day 53
  animals that became tumor free and remained tumor free: 7 out of 9
[4]; single agent Compound 2 1 mg/kg qd×3 (days 31-33), day 50
  tumor growth inhibition / tumor volume reduction (TVR): 44%
[4]; single agent, 1 mg/kg
  day by which tumors reached approximately 2000 mm^3: 58 days

## O=C1CC[C@H](N2Cc3c(OCc4ccc(CN5CCN(c6ccc(F)cc6F)CC5)cc4)cccc3C2=O)C(=O)N1 [Compound B]
[5]; 30 minute preincubation with or without NADPH
  time-dependent inhibition of CYP2A6: little to no time-dependent inhibition; also recorded: not a time-dependent inhibitor
[5]; human liver microsomes
  direct inhibition of CYP2A6: up to 30%
